Assay results reported in patent US20230053540A1, “TREATMENT OF LIVER INJURY” (Massachusetts Institute of Technology, priority 2019, published 2023).

Legend:
hepatocytes = assay: Gene set analysis (piano) of composite DEG, APAP vs untreated; set-up: species or system mouse
Excerpt: Shared and unique by injury model gene lists were assembled by combining DE results across all time points for each injury. Applicants ran differential expression using Wilcox test in the FindAllMarkers Seurat function between each treatment condition (A6, A24, A48, A96, PH3, PH48, PH120) individually and untreated (UT). […] A small number of genes were up at one time point, but down at another.
Applicants ran pathway analysis on the composite DE results using the piano R package. Reference gene sets were downloaded from MSigDB (Broad Institute). Applicants used geneSetStat=“fisher”, adjMethod=“fdr”, and signifMethod=“geneSampling”. Applicants then parsed the results to identify shared and unique reference gene sets for each injury. Any reference gene set with a q-value greater than 0.05 was discarded as insignificant. […] Selected reference gene set −log(q) are plotted in FIG. 20.

mouse liver = assay: APAP acute liver injury in mice, histology/IHC (TUNEL, PCNA); format: in vivo; conditions: 300 mg/kg APAP i.p.
Protocol: Mice were then used for isolation of primary hepatic cells for single cell RNA-sequencing or tissue harvest for further downstream analysis.
A portion of liver tissue was fixed in 10% neutral buffered formalin for 48 hrs and further processed to obtain paraffin blocks and 5 μm thick sections. A portion of liver tissue was frozen in optimal cutting temperature (OCT) medium and used to obtain 10 μm fresh frozen sections.
Histology was performed by the histology core at Beth Israel Deaconess Medical Center using standard procedures and automated workflow. Samples were processed and embedded following fixation in 10% neutral buffered formalin for 48 hrs. Samples were embedded in paraffin and sectioned at […]. Immunohistochemistry was performed on a Leica autostainer (Leica Biosystems) with enzyme treatment (1:1000) using standard protocols. The antibody used for assessment of cell proliferation was PCNA (Cell Signaling, Cat. 13110, 1:800), and cell death was ApopTag Peroxidase In Situ Apoptosis Detection Kit (Millipore, Cat. #S7100). Macrophages were stained using the anti-F4/80 (Cell Signaling, Cat. 70076, 1:500). Sections were then counterstained with hematoxylin, dehydrated, and film cover slipped. Four representative images were captured per slide. TUNEL-positive area, PCNA-positive cells, and F4/80-positive cells were measured and averaged across the four images for each sample using Fiji.

**Q.** For `CC(=O)Nc1ccc(O)cc1` [APAP, acetaminophen], which “anti-oxidant response by gene set analysis (GSA)” value (hepatocytes) is on record?
**A.** substantial anti-oxidant response

**Q.** And the “histological analysis of liver” value (mouse liver; 6 hrs post-APAP (A6))?
**A.** pericentral necrosis

**Q.** And the histology of liver (mouse liver; 24 hrs post-APAP (A24))?
**A.** persistent pericentral necrosis

**Q.** What about the “total cell loss (liver cell mass) after APAP exposure” value (mouse liver; PH ~70%) of the same compound?
**A.** ~10%
